This data set has as its system patients with acute manic (including mixed) episode, bipolar I disorder. As to the kind of experiment: Study BIA-2093-204: 3-week double-blind, randomised, placebo-controlled, fixed multiple dose study in acute mania. The class given is in vivo, human. To be noted: for YMRS score absolute change from V2 (1 Day) to V7 (21 Days), Mean ± SD / YMRS score absolute change from V2 (1 Day) to V7 (21 Days), Median (range): ITT. The procedure: Two 3-week multicentre, double-blind, randomised, placebo-controlled studies in acute mania (study BIA-2093-203: dose titrated by response, eslicarbazepine acetate (ESL) 600-1800 mg or 800-2400 mg, once-daily; study BIA-2093-204: fixed doses of 600, 1200 and 1800 mg, once-daily) were followed by a recurrence prevention study consisting of a 2-week open-label period (900 mg, once-daily) continued by a double-blind, parallel-group, fixed dose (300, 900 and 1800 mg, once-daily) period for a minimum of 6 months. The primary endpoint was change in Young Mania Rating Scale (YMRS) in studies BIA-2093-203 and BIA-2093-204, and the proportion of no worsening patients in the Clinical Global Impressions-Bipolar Version (CGI-BP) in study BIA-2093-205.
Study BIA-2093-204 (EudraCT No 2005-002133-13) followed a multicentre, double-blind, randomised, parallel-group, placebo-controlled, fixed multiple dose design. This study was conducted at 25 study centres in Europe, South Africa and South America. Patients were randomised (1:1:1:1) to one of the following treatment groups: (1) ESL 1800 mg QD, (2) ESL 1200 mg QD, (3) ESL 600 mg QD, and (4) Placebo QD. The visit schedule in study BIA-2093-204 was similar to that of study BIA-2093-203. […] Patients also had the option of entering Study BIA-2093-205.
Studies BIA-2093-203 and BIA-2093-204 enrolled patients with ages ≧18 years, currently displaying an acute manic (including mixed) episode and with a documented diagnosis of bipolar I disorder according to the DSM-IV criteria (2). Eligible patients should have a Young Mania Rating Scale (YMRS) total score ≧20, with symptoms of the current manic episode starting within two weeks prior to randomization. Patients were excluded if they had history of schizophrenia or schizoaffective disorder, psychotic features or rapid cycling. Patients were also excluded if they were treated with carbamazepine, oxcarbazepine or a depot-neuroleptic. Previous treatment with ESL or history of unresponsiveness, intolerance or hypersensitivity to other dibenzazepine compounds (carbamazepine, oxcarbazepine or licarbazepine) also constituted criteria for exclusion. Patients with clinical relevant risk of harm to self or others and history of substance abuse were also excluded. Women were excluded if they were pregnant or breast-feeding, or if of childbearing potential they were unable to use double-barrier contraception.
The following validated instruments were used: YMRS (20), the Clinical Global Impressions-Bipolar Version (CGI-BP) scale (21) and the Montgomery-Åsberg Depression Rating Scale (MADRS) (22). The YMRS score is the sum of 11 scoring items, ranging from 0 to 60 points; higher scores indicate higher mania symptomatology (20). The CGI-BP scale measures severity and treatment-related improvement in mania, depression and overall illness categories. It comprises 3 scales: severity of illness (1—normal to 7—very severely ill, in which 3—mildly ill was used as cut-off value for statistical analysis), change from preceding phase and worst phase (1—very much improved to 7—very much worse, and 8—not applicable) (21). The MADRS score is calculated as the sum of the 10 scoring items, ranging from 0 to 60 points: higher scores indicate higher depression symptomatology (22).
The primary efficacy endpoint for acute mania studies (BIA-2093-203 and BIA-2093-204) was the change in YMRS total score from baseline until the end of the 3-week treatment period. Investigators administered the YMRS at each visit. Secondary efficacy variables based on the YMRS score included responder rate (proportion of patients with ≧50% improvement or <12 points in the YMRS score), change in YMRS total score for each visit, proportion of patients in full remission (YMRS score <12), and time to full remission. The investigators completed CGI-BP in all visits and the test scores in the different categories were considered as secondary endpoints. […]

[1] abbreviates: ESL 1200 mg, n = 9, only study 204.
[2] abbreviates: ESL 1800 mg, n = 10, only study 204.

Consider `CC(=O)O[C@H]1Cc2ccccc2N(C(N)=O)c2ccccc21` [ESL, (S)-10-acetoxy-10,11-dihydro-5H-dibenz[b,f]azepine-5-carboxamide], for which, for the setting “ESL 600 mg QD, n = 8”, the “YMRS score absolute change from V2 (1 Day) to V7 (21 Days), Mean ± SD” value (“YMRS score absolute change from V2 … Mean ± SD” below) was −16.9 ± 2.8 and the “YMRS score absolute change from V2 (1 Day) to V7 (21 Days), Median (range)” value (“YMRS score absolute change from V2 … (range)” below) is −17.5 (−20.0, −12.0). For the setting “ESL 1200 mg QD, n = 9”, the “YMRS score absolute change from V2 … Mean ± SD” value is listed as −16.7 ± 9.1 and the “YMRS score absolute change from V2 … (range)” value is on record as −15.0 (−35.0, −4.0). In addition, under setting [1], the “Any Adverse Events” value is on record as 9 (100.0) Number (%) of patients, the Diarrhoea is 0 (0.0) Number (%) of patients, the Dizziness is 2 (22.2) Number (%) of patients and the Headache is 5 (55.6) Number (%) of patients. Besides, under setting [1], the Nausea is recorded as 1 (11.1) Number (%) of patients, the Paraesthesia oral was 1 (11.1) Number (%) of patients, the Somnolence was 1 (11.1) Number (%) of patients and the Vomiting is listed as 2 (22.2) Number (%) of patients. Besides, where the note is “ESL 1800 mg QD, n = 9”, the “YMRS score absolute change from V2 … Mean ± SD” value is given as −11.3 ± 10.9 and the “YMRS score absolute change from V2 … (range)” value is −15.0 (−26.0, 7.0). In addition, under “ESL 1800 mg group”, the “mean change in YMRS total scores from screening to V7” value was −11.3 and the “patients in full remission at the end of the 3-week treatment period” value was 33.3%. Also, under setting [2], the “Any Adverse Events” value was 10 (100.0) Number (%) of patients, the Diarrhoea is 0 (0.0) Number (%) of patients, the Dizziness was 4 (40.0) Number (%) of patients and the Headache is 1 (10.0) Number (%) of patients. Besides, under setting [2], the Nausea is on record as 3 (30.0) Number (%) of patients, the Paraesthesia oral is listed as 2 (20.0) Number (%) of patients, the Somnolence is on record as 3 (30.0) Number (%) of patients and the Vomiting was 2 (20.0) Number (%) of patients.

Source of the values: US20160051560A1, “TREATMENTS INVOLVING ESLICARBAZEPINE OR ESLICARBAZEPINE ACETATE” (BIAL - PORTELA & Cª, S.A., priority 2013, published 2016).
